Assays:
[1] = test system: formalin-induced paw licking in mice; assay: Formalin-induced paw licking; assay type: in vivo, ICR mice; conditions: mouse, in vivo, ip
Experimental: (§1) The ICR mice (18–22 g) used in this study were purchased from the Experimental Animal Center of SLac-kinda (Changsha, China). The animals were maintained at 20–25°C and freely allowed to standard rodent chow and water ad libitum. Ethical approval for in vivo experiments in animals was approved by the Animal Care and Use Committee (ACUC) at the Hunan Province Animal Management Office (HPAMO).
A formalin test was performed according to the previous method ([Owoyele et al., 2005]). […] The time spent licking the injected paw by each mouse was recorded by a digital stopwatch during Phase I (0–15 min post-injection) and Phase II (15–40 min post-injection).

hot plate test in mice = assay: Hot plate test; assay type: in vivo, ICR mice; conditions: mouse, in vivo
Experimental: as §1
According to a previous method ([Meng et al., 2017]), a hot plate apparatus (model YLS-21A, Jinan, China) maintained at 55 ± 1°C, was used to measure the pain threshold of mice subjected to a thermal stimulus. Each female mouse was placed on hot plate to observe its pain response (hind-paw-licking or jumping) acted as its own control. The mice whose latent response times were shorter than 5 s or longer than 30 s were excluded from the test.

Nav1.4 = test system: Nav1.4; design: method as in Xiao et al., 2008; Goncalves et al., 2018; conditions: skeletal isoform; ref Xiao et al., 2008; Goncalves et al., 2018; cited from earlier work

Molecule | analgesic effect on Phase I compared to control [1] | paw licking time, Phase I [1] [s] | paw licking time, Phase II [1] [s] | latency time, hot plate (hot plate test in mice) [s] | IC50 (Nav1.4) [nM]
CN1CC[C@]23c4c5ccc(O)c4O[C@H]2[C@@H](O)C=C[C@H]3[C@H]1C5 [morphine, reference compound] | modest analgesia | 64.1 ± 8.5 | 126.1 ± 19.8 | 15.2 ± 1.9 | –
HWTX-IV: spider peptide toxin; printed as μ-TRTX-Hhn1b (HWTX-IV) in b50, μ-TRTX-Hs2a (HWTX-IV) in b51 | – | – | – | – | 400

Reference: paper PMC6198068, “Discovery of a Novel Nav1.7 Inhibitor From Cyriopagopus albostriatus Venom With Potent Analgesic Efficacy” (Frontiers in Pharmacology, 2018)
